Source: patent publication US11584744B2 (UNIVERSITY OF WASHINGTON, priority 2017, dated 2023)
In brackets after ≈: the same amount, converted by molar mass. Read-outs that look alike come from different tables or passages of the source.

Legend:
[1] = biological target: recombinant S. aureus MetRS enzyme (Staphylococcus aureus, UniProt A0A0H2XID2); experiment: Inhibition of SaMetRS, ATP depletion assay; assay type: biochemical
Method in brief: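 N-terminal 6-His S. aureus MetRS (25 nM) was pre-incubated 15 min at room temperature with compound, 400 μg/mL E. coli tRNA and pyrophosphatase in HEPES-KOH pH 7.9, 2% DMSO. Reaction started with 150 nM ATP plus 20 μM L-methionine, ran 120 min; remaining ATP read by Kinase-Glo luminescence, IC50 by sigmoidal nonlinear regression.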

[2] = test system: S. aureus MSSA (ATCC 29213); experiment: MIC susceptibility testing; assay type: cell-based, Staphylococcus aureus; conditions: Staphylococcus aureus, 18 h; read-out: S. aureus MSSA (ATCC 29213) MIC
E. faecalis (ATCC 29212) = experiment: MIC susceptibility testing; assay type: cell-based; conditions: Enterococcus faecalis, ATCC29212; read-out: E. faecalis (ATCC 29212) MIC
Description: (§1) Media and culture conditions. Mueller Hinton broth (MHB), cation adjusted Mueller Hinton broth (CA-MHB), and Brain Heart Infusion broth (BHI) were purchased from Becton Dickinson (Franklin Lakes, N.J.). Tryptic soy agar (TSA) plates, TSA with 5% sheep blood plates, and CA-MHB with 3% laked horse blood were purchased from Remel (San Diego, Calif.). MHB was used to assay all Staphylococcus aureus strains. CA-MHB was used for Staphylococcus epidermidis, Enterococcus faecalis, Enterococcus faecium, Escherichia coli, and Pseudomonas aeruginosa. CA-MHB supplemented with 3% laked horse blood was used for Streptococcus pneumoniae and Streptococcus pyogenes. Staphylococcus, Enterococcus, Escherichia, and Pseudomonas strains were cultured at 37° C. with ambient air. Streptococcus strains were cultured in 37° C. with 5% CO2. Separate conditions for radiolabeled precursor uptake assays are described below.
(§2) Susceptibility testing: Minimum inhibitory concentration (MIC) determinations were performed in triplicate in 96-well round bottom microtiter plates (Corning, Corning N.Y.) as described by the Clinical and Laboratory Standards Institute (CLSI). Serial two-fold dilutions of compounds were added to plates in 50 μL volumes. An additional 50 μL of media containing bacterial cells (1×10^6 CFUs/mL) was then added to each well. Maximum DMSO concentrations were 0.5%. Plates were incubated at 37° C. for at least 18 h before reading the susceptibility result by optical absorbance (OD600) using a BioTek ELx800. The lowest concentration causing ≥90% growth inhibition compared to the untreated control was recorded as the MIC (and also corresponded to the visual MIC). MICs were measured at least twice and the higher value (if different) was recorded herein.

E. faecium (ATCC 19434) = experiment: MIC susceptibility testing; assay type: cell-based; conditions: Enterococcus faecium, ATCC19434; read-out: E. faecium (ATCC 19434) MIC
Description: as §1, §2

[3] = test system: S. aureus MRSA (ATCC 43300); experiment: MIC susceptibility testing; assay type: cell-based; conditions: Staphylococcus aureus; read-out: S. aureus MRSA (ATCC 43300) MIC
Description: as §1, §2

[4] = test system: E. faecium VRE (ATCC 51559); experiment: MIC susceptibility testing; assay type: cell-based, Enterococcus faecium; conditions: Enterococcus faecium
Method in brief: (§3)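 CLSI broth microdilution in triplicate, 5×10^5 CFU/mL final, ≤0.5% DMSO; MHB for S. aureus, CA-MHB for E. coli and E. faecium, CA-MHB plus 3% laked horse blood for S. pyogenes (5% CO2).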

[5] = Cytotoxicity testing on mammalian cells (AlamarBlue, 48 hours); assay type: cell-based; conditions: human
Protocol: Cytotoxicity testing on mammalian cells: Compounds were assayed for cytotoxicity against CRL-8155 (human lymphoblasts) and HepG2 cells (human hepatocellular carcinoma). Cells were exposed to serial dilutions of compounds for 48 hours and toxicity was quantified using AlamarBlue (ThermoFisher Scientific, Waltham, Mass.). Assays were performed in quadruplicate and EC50 values were calculated with non-linear regression methods using software by the Collaborative Drug Database (Burlingame, Calif. www.collaborativedrug.com)

[6] = Liver microsome stability; assay type: in vitro ADME
Protocol: Microsome stability. Liver microsome stability assays were done by contract research laboratory, Wuxi AppTec Co. (Hubei, China). Briefly, compounds at 1 μM concentration were incubated in singlet with human or CD-1 mouse liver microsomes for 6 time points (0, 5, 10, 20, 30, and 60 min). Loss of parent compound was quantified by liquid chromatography/tandem mass spectrometry.

[7] = test system: S. aureus MRSA (ATCC 33591); experiment: MIC susceptibility testing; assay type: cell-based, Staphylococcus aureus; conditions: Staphylococcus aureus, MRSA ATCC33591; read-out: (G) MRSA (ATCC33591) MIC
Method in brief: as §3

S. aureus = experiment: Serum shift assays (MIC with and without 50% human serum); assay type: cell-based, Staphylococcus aureus; conditions: Staphylococcus aureus
Protocol: Serum shift assays: To assess the role of protein binding on compound susceptibility, MIC determinations were performed in triplicate in the presence and absence of 50% human serum. Serial threefold dilutions of 2× compound were generated in MHB and aliquoted onto 96 well plates with a DMSO limit of 0.5%. Bacteria were adjusted to 1*10^8 CFUs/mL in MHB, then further diluted 1:100 in MHB and 100% heat deactivated filter sterilized pooled human serum. Fifty microliters were added to each well of the corresponding plates, and the plates were incubated at 37° C. for ˜20 h. The lowest concentration causing ≥90% growth inhibition was recorded as the MIC.

[8] = Protein binding assays, equilibrium dialysis; assay type: in vitro ADME, mouse; conditions: 1 μM, equilibrium dialysis 22 hours
Protocol: Protein binding assays: Compound binding to mouse plasma proteins was determined using 96-well equilibrium dialyzer plates (SDIS 9610EN, Nest Group, Inc.). Mouse plasma ([…]-SW-F, BioreclamationIVT, Westbury, N.Y.) containing compound (final concentration 1 μM) was added to a donor chamber as a 150 μL volume. The buffer solution (0.2 mM phosphate buffer, 150 μL) was added to the reciprocal acceptor chamber. Each compound was tested in triplicate. To prepare calibration solution for compound quantifications, blank wells were prepared containing only mouse plasma in a donor well and buffer solution in its acceptor well. The equilibrium dialysis was carried out by rocking the plate for 22 hours in 37° C. Once equilibrium was reached, the plasma and buffer solution from both wells were carefully removed for further analysis with liquid chromatography-tandem mass spectrometry. Plasma solution and internal standard were mixed in the presence of 80% acetonitrile. After centrifuging the solution, the supernatant was transferred to an insert. Similarly, the buffer solution from the acceptor side was prepared containing 40% acetonitrile. Calibration standards for donor and acceptor sides were prepared with compound concentrations of 50 nM, 100 nM, 250 nM, 500 nM, and 1 μM. The compound concentrations from each well were calculated from the calibration curves using Microsoft Excel. The percentage of the test compound bound was determined as follows: % Free=(Concentration buffer chamber/Concentration plasma chamber)×100% % Bound=100%−% Free

MetRS (T. brucei) = biological target: T1, MetRS (T. brucei) (Trypanosoma brucei brucei, UniProt Q38C91); experiment: MetRS (T. brucei) enzyme inhibition; assay type: biochemical
T1 sequence (Q38C91 1-773): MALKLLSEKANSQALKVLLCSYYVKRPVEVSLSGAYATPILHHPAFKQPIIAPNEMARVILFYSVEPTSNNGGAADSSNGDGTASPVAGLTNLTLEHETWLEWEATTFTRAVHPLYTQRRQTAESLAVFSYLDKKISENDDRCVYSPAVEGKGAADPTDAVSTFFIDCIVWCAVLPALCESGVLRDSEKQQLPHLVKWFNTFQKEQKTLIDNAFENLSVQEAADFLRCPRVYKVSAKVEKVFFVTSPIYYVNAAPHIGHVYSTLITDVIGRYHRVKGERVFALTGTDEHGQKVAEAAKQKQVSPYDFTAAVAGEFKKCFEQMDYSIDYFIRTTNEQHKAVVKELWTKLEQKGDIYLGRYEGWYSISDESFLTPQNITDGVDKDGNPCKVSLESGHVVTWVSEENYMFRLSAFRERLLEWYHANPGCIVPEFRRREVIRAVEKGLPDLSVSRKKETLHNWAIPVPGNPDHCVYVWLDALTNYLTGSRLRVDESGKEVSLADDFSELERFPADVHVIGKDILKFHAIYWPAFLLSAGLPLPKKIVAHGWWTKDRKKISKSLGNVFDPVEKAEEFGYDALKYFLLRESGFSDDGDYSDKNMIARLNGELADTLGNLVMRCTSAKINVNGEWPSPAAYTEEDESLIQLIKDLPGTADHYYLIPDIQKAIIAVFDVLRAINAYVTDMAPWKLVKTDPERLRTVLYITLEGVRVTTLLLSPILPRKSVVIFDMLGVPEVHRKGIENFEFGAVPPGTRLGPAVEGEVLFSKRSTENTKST

MetRS (C. parvum) = MetRS (C. parvum) (Cryptosporidium parvum, UniProt Q5CVN0); experiment: MetRS (C. parvum) enzyme inhibition; assay type: biochemical; conditions: read-out: (C) MetRS (C. parvum) IC50
Sequence of MetRS (C. parvum) (Q5CVN0 entry or part of it): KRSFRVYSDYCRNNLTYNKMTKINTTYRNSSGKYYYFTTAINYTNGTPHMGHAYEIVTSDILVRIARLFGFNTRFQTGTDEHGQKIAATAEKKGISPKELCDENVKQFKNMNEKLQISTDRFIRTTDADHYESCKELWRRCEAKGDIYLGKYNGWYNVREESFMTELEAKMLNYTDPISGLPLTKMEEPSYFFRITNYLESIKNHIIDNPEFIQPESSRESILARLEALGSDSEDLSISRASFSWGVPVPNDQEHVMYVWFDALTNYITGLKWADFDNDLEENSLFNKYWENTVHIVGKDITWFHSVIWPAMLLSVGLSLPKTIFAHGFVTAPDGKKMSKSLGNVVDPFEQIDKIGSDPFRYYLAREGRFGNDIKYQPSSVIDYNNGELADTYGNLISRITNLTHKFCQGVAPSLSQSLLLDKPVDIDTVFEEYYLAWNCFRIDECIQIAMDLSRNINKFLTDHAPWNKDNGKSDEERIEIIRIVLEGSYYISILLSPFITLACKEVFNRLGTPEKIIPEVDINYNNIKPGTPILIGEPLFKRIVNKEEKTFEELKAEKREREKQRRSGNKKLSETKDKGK

T. cruzi = T. cruzi growth inhibition; assay type: cell-based, Trypanosoma cruzi; conditions: read-out: (E) T. cruzi EC50
[9] = recombinant enzyme, lower limit of detection 0.025 μM, read-out: MetRS S. aureus (enzyme) IC50
[10] = read-out: E. faecium VRE (ATCC 51559) MIC
[11] = CRL-8155 cells (human lymphoblasts), read-out: Mamm. cells (CRL8155) CC50
[12] = HepG2 cells (human hepatocellular carcinoma), read-out: Mamm. cells (HepG2) CC50

Sequence of recombinant S. aureus MetRS enzyme (A0A0H2XID2 2-657): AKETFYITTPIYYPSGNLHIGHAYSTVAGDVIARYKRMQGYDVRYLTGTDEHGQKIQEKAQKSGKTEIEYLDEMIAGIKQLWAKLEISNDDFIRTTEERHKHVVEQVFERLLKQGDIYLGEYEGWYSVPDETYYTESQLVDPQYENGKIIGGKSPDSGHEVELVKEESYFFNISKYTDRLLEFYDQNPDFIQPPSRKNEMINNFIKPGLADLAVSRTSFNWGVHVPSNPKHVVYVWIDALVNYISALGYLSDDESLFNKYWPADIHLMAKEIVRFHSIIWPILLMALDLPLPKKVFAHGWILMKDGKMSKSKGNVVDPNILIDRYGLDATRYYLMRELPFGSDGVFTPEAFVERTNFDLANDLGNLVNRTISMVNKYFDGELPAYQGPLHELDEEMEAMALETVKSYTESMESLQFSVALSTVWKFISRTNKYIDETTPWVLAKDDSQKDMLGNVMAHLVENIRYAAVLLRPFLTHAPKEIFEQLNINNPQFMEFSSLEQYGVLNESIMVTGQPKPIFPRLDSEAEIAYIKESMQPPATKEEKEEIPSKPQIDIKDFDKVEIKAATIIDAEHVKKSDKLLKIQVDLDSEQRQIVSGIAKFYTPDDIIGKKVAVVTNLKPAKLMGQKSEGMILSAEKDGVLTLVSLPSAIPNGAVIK

Row | Structure (SMILES) | IC50 [1, 9] | MIC [2] | MIC (E. faecalis (ATCC 29212)) | MIC (E. faecium (ATCC 19434)) | MIC [3] | MIC [4, 10] | CC50 at 48 h [5, 11] | CC50 at 48 h [5, 12] | half-life at 1 μM ([6]; human, human liver microsomes, read-out: Microsome stability: Human T½) | half-life at 1 μM ([6]; mouse liver microsomes, CD-1 mouse, read-out: Microsome stability: Mouse T½) | IC50 ([1]; read-out: (B) MetRS (S. aureus) IC50) | MIC [7] | MIC ([4]; E. faecium ATCC 51559, read-out: (I) E. faecium (ATCC 51559) MIC) | MIC (S. aureus; 50% human serum, read-out: Avg MIC ± SEM (+50% serum)) | MIC (S. aureus; no serum, read-out: Avg MIC ± SEM (no serum)) | % binding to mouse plasma [8] | IC50 (MetRS (T. brucei)) | IC50 (MetRS (C. parvum)) | EC50 (T. cruzi; Trypanosoma cruzi) | EC50 (T. cruzi)
1 | Oc1cc(NCCCNCc2cc(Cl)cc(Cl)c2)nc2ccccc12 [Compound 1312, 2-((3-((3,5-dichlorobenzyl)amino)propyl)amino)quinolin-4(1H)-one] | < 25 nM | 2.5 µg/mL (≈ 6.64 µM) | 0.313 µg/mL (≈ 0.832 µM) | 0.156 µg/mL (≈ 0.415 µM) | 5 µg/mL (≈ 13.3 µM) | 0.156 µg/mL (≈ 0.415 µM) | > 7.5 µg/mL | > 7.5 µg/mL |  |  |  |  |  |  |  |  |  |  |  | 
2 | O=c1[nH]c(Cc2ccc(Cl)cc2Cl)cn1Cc1nc2ccc(F)nc2[nH]1 [Compound 1962, 4-(2,4-dichlorobenzyl)-1-((5-fluoro-3H-imidazo[4,5-b]pyridin-2-yl)methyl)-1,3-dihydro-2H-imidazol-2-one, reference compound] | < 25 nM | 2.5 µg/mL (≈ 6.37 µM) | 5 µg/mL (≈ 12.7 µM) | 1.25 µg/mL (≈ 3.19 µM) | 5 µg/mL (≈ 12.7 µM) | 1.25 µg/mL (≈ 3.19 µM) | > 19.6 µg/mL | > 19.6 µg/mL | 25.9 min | 27 min |  |  |  |  |  |  |  |  |  | 
3 | CCCn1c(Cc2ccc(Cl)cc2Cl)cn(Cc2nc3nc(F)ccc3[nH]2)c1=O [Compound 2069, 4-[(2,4-dichlorophenyl)methyl]-1-({5-fluoro-1H-imidazo[4,5-b]pyridin-2-yl}methyl)-3-propyl-2,3-dihydro-1H-imidazol-2-one] |  |  |  |  |  |  |  |  |  |  | < 25 nM | 0.445 µg/mL (≈ 1.02 µM) | > 2 µg/mL | 18.3 ± 2.2 µg/mL | 0.036 ± 0.03 µg/mL | 99.6% | < 40 nM | < 40 nM | 91.3 nM | 176 nM
